Results: patent US10660935B2, “Methods for ameliorating memory impairment in a memory disorder caused by neuronal cell death or Abeta aggregation using a peptide” (JAPAN BIO PRODUCTS Co., Ltd., priority 2017, dated 2020)

Legend:
[1] = system: Aβ25-35-treated murine cerebral cortical neural cells; test: Quantitative experiment for dendritic elongation; type: cell-based, ddY mouse; conditions: compared with Vehicle
Method: (§1) Murine cerebral cortical neural cells were prepared by the following method. Fetuses extracted from a 14-day […] ddY mouse (Japan SLC, Shizuoka) were washed with PBS, then decapitated, and added in a medium made for primary culture [12% equine serum (Life Technologies), 2 mM L-glutamic acid, and 0.6% glucose dissolved in Neurobasal media (Life Technologies, Carlsbad, Calif., USA)]. Only cerebral cortex was isolated in the medium under a stereomicroscope (SZ-61, Olympus, Tokyo).
(§2) Cerebral cortex was cut into about 1 mm-sized cubes in a safety cabinet. Centrifugation was performed at 700 rpm for 3 minutes, then the supernatant was removed, and to the precipitate was added 2 mL of 0.05% trypsin-0.53 mM EDTA solution (Life Technologies) to make a suspension. The suspension was incubated at 37° C. for 15 minutes with stirring for every 5 minutes, loaded with 4 mL of the medium, centrifuged at 700 rpm for 3 minutes to remove the supernatant, and to the precipitate was added 2 mL of 600 U/mL DNase I (Wako Pure Chemical Co., Ltd)-0.03% trypsin inhibitor (Life Technologies)-PBS solution to make a suspension.
(§3) The suspension was further incubated at 37° C. for 15 minutes with stirring for every 5 minutes, loaded with 4 mL of the medium, and centrifuged at 700 rpm for 3 minutes. The sediment was loaded with 4 mL of a calcium-magnesium-free Hank's balanced salt solution (HBSS), and centrifuged at 700 rpm for 3 minutes. 4 mL of the medium was added to the sediment.
The sediment loaded with the medium was gently suspended with a Pasteur pipette in which its tip had been heated and smoothed, until the cell clumps were invisible, and then filtrated with a 70 μm nylon cell strainer (Falcon, N.J., USA). Cell culture was performed in an 8-well chamber slide (falcon). Cells were seeded into the one coated the day before [in which Poly-D-Lysine (PDL, Wako Pure Chemical Co., Ltd) diluted with PBS to 0.005 mg/mL was plated and incubated at 37° C.; on the day of culture, it was washed twice with sterilized purified water.] Culture was started at 37° C. and 10% CO2 under saturated vapor.
In quantitative experiment for dendritic elongation, the medium was all changed with a fresh medium containing B-27 supplement (Invitrogen) instead of equine serum 5 hours and 3 days after start of culture. At medium change after 3 days, the pre-aggregated partial sequence fragment of amyloid beta (Aβ25-35) was added up to 10 μM. After another 3 days, each peptide or solvent was added when the medium was all changed into a fresh one, and after another 4 days, immunostaining was performed.
Immunostaining for quantifying dendritic elongation was performed as follows. After the end of the drug treatment term, the medium was removed and the cells were washed with PBS, added with 4% paraformaldehyde (PFA, Wako Pure Chemical Co., Ltd)-PBS solution, left standing at room temperature for an hour, and fixed. Wash with 0.3% triton X-100 (Wako Pure Chemical Co., Ltd)-PBS solution for 5 minutes was performed twice. Then, a primary antibody solution (0.3% triton X-100-PBS solution, 1% normal goat serum [Wako Pure Chemical Co., Ltd], a primary antibody) was added, and reacted at 4° C. overnight.
For the primary antibody, rabbit anti-MAP2 polyclonal antibody (1:2000) (Abcam, Cambridge, UK) was used. The next day, the primary antibody solution was removed; wash was performed twice with 0.3% triton X-100-PBS solution for 5 minutes; and then a secondary antibody solution [0.3% triton X-100-PBS solution, Alexa Fluor 488-labeled goat anti-rabbit IgG antibody (1:200) (Molecular Probes, Eugene, Oreg., USA)] was added, and reacted under shading at room temperature for 2 hours. After the reaction, the secondary antibody solution was removed, and the cells were washed twice with PBS for 5 minutes, stained for nuclei with DAPI staining, and then embedded with Aqua-Poly/Mount (Polysciences, Warrington, USA). […]

5XFAD mice = test: Object recognition memory test; type: in vivo, mouse; conditions: continuous intraventricular infusion for 28 days keeping 10 nM in cerebrospinal fluid, 24 hours interval between training and testing, P<0.05
Text: Alzheimer's disease model mice: Transgenic mice that are animal models for Alzheimer's disease (5XFAD) were obtained from the Jackson Laboratories (Bar Harbor, Me., USA). 5XFAD mice overexpress human APP695 cDNA having mutations of Swedish (K670N and M671L), Florida (I716V), and London (V717I), and human PS1 cDNA (mutations at M146L and L286V) under transcriptional control of the neuron-specific murine Thy-1 promoter (Oakley, H. et al., J Neurosci, 26, 10129-10140, 2006). Those were maintained by crossing B6/SJL F1 breeders with hemizygous transgenic mice. […]
GPPGPAG (SEQ ID NO: 1) was dissolved in an artificial cerebrospinal fluid, and an osmotic minipump model 1004 (ALZET Osmotic Pumps, Cupertino, USA) containing the solution inserted and fixed into the right lateral ventricle of each 5XFAD mouse to inject the solution into the lateral ventricle continuously for 28 days. […] Specifically, from a peptide flow of 0.11 μL/h from the pump and a production of cerebrospinal fluid of 18 μL/h in the mouse, the concentration of the peptide solution was calculated such that the peptide concentration in the murine cerebrospinal fluid would be kept at 10 nM (which was an effective concentration in the cell experiments), and the solution prepared thereby was loaded into the pump. […]

[2] = system: Aβ25-35-treated murine cerebral cortical neural cells; test: Quantitative experiment for presynaptic density; type: cell-based, ddY mouse; conditions: 21-day culture
Method: as §1, §2, §3
The sediment loaded with the medium was gently suspended with a Pasteur pipette in which its tip had been heated and smoothed, until the cell clumps were invisible, and then filtrated with a 70 μm nylon cell strainer (Falcon, N.J., USA). Cell culture was performed in an 8-well chamber slide (falcon). […]
Immunostaining for quantifying presynaptic density was performed as follows. […]

[3] = posttreatment with 1 nM peptide for 4 days after 10 μM Aβ25-35 for 3 days
[4] = posttreatment with 10 nM peptide for 4 days after 10 μM Aβ25-35 for 3 days

Row | Substance | density of dendrites (length of MAP2-positive dendrites per neural cell) [1, 3] | density of dendrites (length of MAP2-positive dendrites per neural cell) [1, 4] | exploratory preferential index at the testing stage relative to the training stage (5XFAD mice) | presynaptic density on dendrites (synaptophysin-positive area per dendrite length) ([2]; posttreatment with 1 nM, 10 nM and 100 nM, 10 μM Aβ25-35 for 3 days, peptide for 4 days) | presynaptic density on dendrites (synaptophysin-positive area per dendrite length) ([2]; posttreatment with 10 nM, 10 μM Aβ25-35, compared with Vehicle) | presynaptic density on dendrites (synaptophysin-positive area per dendrite length) ([2]; posttreatment with 100 nM, 10 μM Aβ25-35, compared with Vehicle)
1 | GPPGPA: comparison peptide of amino acid sequence GPPGPA (SEQ ID NO: 4) (P4) | neither treatment with 1 nM nor 10 nM was any effect observed | neither treatment with 1 nM nor 10 nM was any effect observed |  |  |  | 
2 | GPPGPAG (P1) |  | significant increase in density of dendrites | significantly increased | concentration-dependent increase in presynaptic density | significant increase | significant increase
3 | GPPGPP: comparison peptide of amino acid sequence GPPGPP (SEQ ID NO: 3) (P3) | neither treatment with 1 nM nor 10 nM was any effect observed | neither treatment with 1 nM nor 10 nM was any effect observed |  |  |  | 
4 | GPPGPPG (P2) | neither treatment with 1 nM nor 10 nM was any effect observed | neither treatment with 1 nM nor 10 nM was any effect observed |  |  |  | 
5 | PPGPAG: comparison peptide of amino acid sequence PPGPAG (SEQ ID NO: 5) (P5) | neither treatment with 1 nM nor 10 nM was any effect observed | neither treatment with 1 nM nor 10 nM was any effect observed |  |  |  | 
